From paper PMC12797170, “Potent Competitive Inhibitors of Ecto-5′-nucleotidase (CD73) based on 6‑(Het)aryl-7-deazapurine Ribonucleoside 5′‑O‑Bisphosphonates” (ACS Pharmacology & Translational Science, 2025)
Converted amounts (≈) assume the structure as drawn.

Tests used:
[1] = molecular target: T1, recombinant human CD73 (hCD73) (Homo sapiens, UniProt P21589); assay: CD73 activity assay on recombinant human CD73; type: biochemical; settings: ΔGexp = RT ln Ki
T1 sequence (P21589 27-574): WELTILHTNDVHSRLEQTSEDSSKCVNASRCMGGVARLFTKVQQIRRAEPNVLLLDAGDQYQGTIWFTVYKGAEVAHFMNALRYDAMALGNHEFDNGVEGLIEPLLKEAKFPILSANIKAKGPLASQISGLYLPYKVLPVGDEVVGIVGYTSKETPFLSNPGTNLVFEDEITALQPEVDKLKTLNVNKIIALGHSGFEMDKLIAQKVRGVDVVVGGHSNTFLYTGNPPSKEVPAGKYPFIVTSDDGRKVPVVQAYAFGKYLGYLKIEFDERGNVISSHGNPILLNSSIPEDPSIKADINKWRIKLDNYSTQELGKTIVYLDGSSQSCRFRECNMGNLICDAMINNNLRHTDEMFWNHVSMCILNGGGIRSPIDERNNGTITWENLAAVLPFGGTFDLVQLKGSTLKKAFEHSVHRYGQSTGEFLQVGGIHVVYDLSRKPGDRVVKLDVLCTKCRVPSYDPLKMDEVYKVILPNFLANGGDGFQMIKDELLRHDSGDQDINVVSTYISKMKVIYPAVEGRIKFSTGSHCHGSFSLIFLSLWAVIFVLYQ

[2] = Plasma protein binding, mouse plasma; type: in vitro ADME; settings: mouse, plasma, mouse plasma protein binding; read-out: PPB (m) (converted)
Experimental: (§1) Plasma protein binding of the investigated compounds was determined using equilibrium dialysis in single-use Rapid Equilibrium Dialysis devices with an 8 kDa molecular weight cutoff (Thermo Fisher Scientific), following the manufacturer’s protocol. In brief, 50 μL of undiluted human plasma (Biowest), spiked with the test compound at a final concentration of 100 μM, was added to the sample chamber, while 300 μL of phosphate-buffered saline (PBS) was placed in the buffer chamber. Devices were incubated for 4 h at 37 °C with gentle shaking.
(§2) After dialysis, 7.5 μL aliquots from both the plasma and buffer chambers were transferred directly into wells of a 384-well plate. To equalize the matrices for downstream processing, 7.5 μL of PBS was added to each plasma aliquot, and 7.5 μL of plasma was added to each buffer aliquot. Proteins were precipitated by adding four volumes of ice-cold methanol to each well, followed by thorough mixing and incubation at – 20 °C for 30 min. Plates were then stored overnight at 8 °C. Prior to analysis, the plate was centrifuged at 2,000 × g for 20 min at 8 °C. […] The fraction of unbound compound was calculated using the following equations: %Free=c(bufferchamber)/c(plasmachamber)*100% %Bound=100%−%Free

in vitro [3] = settings: mouse, plasma
[4] = In vivo pharmacokinetic study, intravenous; parameters: species or system male CD-1 mice; settings: plasma, 1 mg/kg, intravenous; for half-life: male, CD-1, mouse, iv, footnote: t1/2 stability in plasma, text: half-life in mouse PK; for clearance: mouse, male CD-1 mice, single dose, read-out: Cl (obs), observed clearance
Experimental: The pharmacokinetic study was performed by Bienta (Enamine Biology Services) using male CD-1 mice (3 animals, 9 weeks old, body weight ranging from 29.2 to 33.7 g) following intravenous administration. Levels of the test compound were determined by LC-MS/MS in blood plasma over time (seven sampling time points: 5, 15, 30, 60, 120, 240, and 480 min) after a single dose.
Animal treatment and samples preparation were conducted by the Animal Laboratory personnel at Enamine/Bienta.

[5] = Plasma protein binding, equilibrium dialysis, human plasma; type: in vitro ADME; settings: undiluted plasma
Experimental: as §1, §2

[6] = Microsomal stability assay, mouse liver microsomes; type: in vitro ADME; settings: for Mics (m) comp remaining 60 min: 10 μM; for microsomal CLint at 10 µM: pooled liver microsomes, pH 7.4, read-out: Mics (m) CLint
[7] = Kinetic solubility in PBS; type: physicochemical; settings: phosphate-buffered saline, pH 7.4, aqueous buffer, kinetic from dmso stock
Experimental: Test compounds were prepared as 10 mM stock solutions in DMSO and diluted in phosphate-buffered saline (PBS, pH 7.4) to a 100 μM solution, which was then aliquoted in duplicate. The duplicate samples were incubated in Multiscreen PCF Filter Plates (Merck Millipore) with sealed bottom at room temperature on a shaker for 2 h to allow equilibration. Following incubation, the samples were centrifuged into nonsterile, flat-bottom 96-well plates at 2,200 RCF for 12 min. Supernatants were then diluted 1:99 in a solution of 50% acetonitrile containing 0.1% DMSO. The diluted samples were transferred to 384-well Echo plates, which contained prespotted calibration standards prepared by Echo transfer of 10 mM and 1 mM DMSO stock solutions, resulting in calibration points ranging from 0.05 to 4 μM. Samples and standards were subsequently analyzed by Echo-MS.

in vitro [8] = settings: human, plasma
[9] = Microsomal stability assay, human liver microsomes; type: in vitro ADME; settings: for Mics (hu) comp remaining 60 min: 10 μM; for microsomal CLint at 10 µM: pooled liver microsomes, pH 7.4, read-out: Mics (hu) CLint
HeLa S3 = assay: In vitro cytotoxic activity; type: cell-based; settings: Homo sapiens
Experimental: (§3) All the compounds were also tested for their in vitro cytotoxic activity on a small panel of four cancer cell lines (CCRF-CEM, HepG2, HeLa S3, HL-60) and nonmalignant human dermal fibroblasts (NHDF).

HL-60 = assay: In vitro cytotoxic activity; type: cell-based; settings: Homo sapiens
Experimental: as §3

HepG2 = assay: In vitro cytotoxic activity; type: cell-based; settings: Homo sapiens
Experimental: as §3

CCRF-CEM = assay: In vitro cytotoxic activity; type: cell-based; settings: Homo sapiens
Experimental: as §3

[10] = system: nonmalignant human dermal fibroblasts (NHDF); assay: In vitro cytotoxic activity; type: cell-based
Experimental: as §3

[11] = Table 6, human plasma, read-out: fup, fraction unbound in human plasma
[12] = human plasma protein binding, read-out: PPB (hu) (converted)

dG_exp, experimental binding free energy [1]	fraction unbound at 4 h, 100 µM [2]	half-life at 10 µM (in vitro [3])	half-life [4]	clearance [4]	fraction unbound at 4 h, 100 µM [5, 11]	Mics (m) comp remaining 60 min [6]	solubility at 2 h [7]	half-life at 10 µM (in vitro [8])	Mics (hu) comp remaining 60 min [9]	fraction unbound at 4 h, 100 µM [5, 12]	microsomal CLint at 10 µM [6]	microsomal CLint at 10 µM [9]	SMILES	IC50 (HeLa S3)	IC50 (HL-60)	IC50 (HepG2)	IC50 (CCRF-CEM)	IC50 [10]
–12.5 kcal/mol	0.058	> 2 h	1.32 h	18 mL/min/kg	0.014	101%	100 µM (≈ 53.8 µg/mL)	> 2 h	102%				O=P(O)(O)CP(=O)(O)OC[C@H]1O[C@@H](n2ccc3c(-c4ccnc5ccccc45)ncnc32)[C@@H](F)[C@@H]1O [34A.28]					
	0.339	> 2 h					> 100 µM	> 2 h	97%	≤ 0.01	< 2 µL/min/mg	< 2 µL/min/mg	N#Cc1ccc(-c2nc(Cl)nc3c2ccn3[C@@H]2O[C@H](COP(=O)(O)CP(=O)(O)O)[C@@H](O)[C@H]2O)c2ccccc12 [7B.34]	> 10 µM	> 10 µM	> 10 µM	> 10 µM	> 10 µM
–11.8 kcal/mol	0.065	> 2 h	1.3 h	19 mL/min/kg	0.017	94%	167 µM (≈ 89.7 µg/mL)	> 2 h	97%				O=P(O)(O)CP(=O)(O)OC[C@H]1O[C@@H](n2ccc3c(-c4cccc5ccccc45)ncnc32)[C@@H](F)[C@@H]1O [34A.6]					
–11.2 kcal/mol	0.2	> 2 h	5.1 h	3.3 mL/min/kg	0.022	97%	245 µM (≈ 119 µg/mL)	> 2 h	93%				O=P(O)(O)CP(=O)(O)OC[C@H]1O[C@@H](n2ccc3c(-c4ccccc4)ncnc32)[C@@H](F)[C@@H]1O [34A.5, [(5-{[4-Phenyl-7H-pyrrolo[2,3-d]pyrimidin-7-yl]-2-deoxy-2-fluoro-β-D-arabinosyl}oxy)phosphonomethyl]phosphonic Acid]					
–12.3 kcal/mol	0.017	> 2 h			0.001	116%	100 µM (≈ 55.5 µg/mL)	> 2 h	98%				O=P(O)(O)CP(=O)(O)OC[C@H]1O[C@@H](n2ccc3c(-c4ccc(F)c5ccccc45)ncnc32)[C@@H](F)[C@@H]1O [34A.23]					
	0.144	> 2 h					64 µM (≈ 35.9 µg/mL)	> 2 h		0.011			O=P(O)(O)CP(=O)(O)OC[C@H]1O[C@@H](n2ccc3c(-c4ccc(-c5ccccc5)cc4)ncnc32)[C@H](O)[C@@H]1O [4A.9]	> 10 µM	> 10 µM	> 10 µM	> 10 µM	> 10 µM
–11.8 kcal/mol	0.022	> 2 h	3.13 h	7.2 mL/min/kg	0.002	90%	82 µM (≈ 44.1 µg/mL)	> 2 h	94%				O=P(O)(O)CP(=O)(O)OC[C@H]1O[C@@H](n2ccc3c(-c4ccc5ccccc5c4)ncnc32)[C@@H](F)[C@@H]1O [34A.7]					
–12.4 kcal/mol	0.055	> 2 h			0.007	115%	75 µM (≈ 40.6 µg/mL)	> 2 h	96%				O=P(O)(O)CP(=O)(O)OC[C@H]1O[C@@H](n2ccc3c(-c4cccc5c4CCCC5)ncnc32)[C@@H](F)[C@@H]1O [34A.12]					
	0.224	> 2 h				87%	86 µM (≈ 46.1 µg/mL)	> 2 h	106%	≤ 0.01	6 µL/min/mg	< 1 µL/min/mg	O=P(O)(O)CP(=O)(O)OC[C@H]1O[C@@H](n2cnc3c(-c4ccc5ccccc5c4)ncnc32)[C@H](O)[C@@H]1O [31A.7]	> 10 µM	7.6 µM	4.8 µM	> 10 µM	3.7 µM
	0.628	> 2 h				108%	87 µM (≈ 46.7 µg/mL)	> 2 h	121%	0.093	< 1 µL/min/mg	< 1 µL/min/mg	O=P(O)(O)CP(=O)(O)OC[C@H]1O[C@@H](n2cnc3c(-c4cccc5ccccc45)ncnc32)[C@H](O)[C@@H]1O [31A.6, [(5-{[6-(Naphth-1-yl)-9H-purin-9-yl]-β-D-ribofuranosyl}oxy)phosphonomethyl]phosphonic Acid]	> 10 µM	> 10 µM	> 10 µM	> 10 µM	> 10 µM
–11.8 kcal/mol	0.253	> 2 h			0.05	89%	73 µM (≈ 39.5 µg/mL)	> 2 h	90%				O=P(O)(O)CP(=O)(O)OC[C@H]1O[C@@H](n2ccc3c(-c4ccc5c(c4)CCCC5)ncnc32)[C@@H](F)[C@@H]1O [34A.17]					
	0.833	> 2 h				80%	79 µM (≈ 38.4 µg/mL)	> 2 h	94%	0.304	9 µL/min/mg	3 µL/min/mg	O=P(O)(O)CP(=O)(O)OC[C@H]1O[C@@H](n2ccc3c(-c4ccncc4)ncnc32)[C@H](O)[C@@H]1O [4A.16]	> 10 µM	> 10 µM	> 10 µM	> 10 µM	> 10 µM
